Laboratory results as given in paper PMC7384330 (Neuropharmacology, 2018).
Entries after “also recorded” stand apart in the source; their conditions may differ. Like-named read-outs stand apart in the source and are kept apart here.

What was measured:
[1] = test system: OXTR; settings: ref Pitt et al., 2004, cited from earlier work
[2] = target: T1, human oxytocin receptor (OXTR) (Homo sapiens, UniProt P30559); test: Fluorescence-based intracellular calcium mobilization assay; assay type: cell-based
T1 sequence (P30559 1-389): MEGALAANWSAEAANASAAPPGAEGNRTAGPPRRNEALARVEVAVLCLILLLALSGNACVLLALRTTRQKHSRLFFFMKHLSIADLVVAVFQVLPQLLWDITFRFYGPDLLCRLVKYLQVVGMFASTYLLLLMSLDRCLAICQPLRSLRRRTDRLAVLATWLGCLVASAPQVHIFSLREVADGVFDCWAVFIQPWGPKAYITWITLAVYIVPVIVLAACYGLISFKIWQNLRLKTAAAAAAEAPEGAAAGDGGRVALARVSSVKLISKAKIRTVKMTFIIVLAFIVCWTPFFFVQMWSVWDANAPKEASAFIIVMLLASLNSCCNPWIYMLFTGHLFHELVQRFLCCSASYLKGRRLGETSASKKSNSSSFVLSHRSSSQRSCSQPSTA

[3] = test system: OXTR; settings: ref Pitt et al., 2004, cited from earlier work; remark: listed apart in the source
[4] = target: muscarinic acetylcholine receptor M3 (Homo sapiens, UniProt P20309); test: NIMH PDSP GPCR receptor binding screen, M3
Chain of muscarinic acetylcholine receptor M3 (P20309 whole entry): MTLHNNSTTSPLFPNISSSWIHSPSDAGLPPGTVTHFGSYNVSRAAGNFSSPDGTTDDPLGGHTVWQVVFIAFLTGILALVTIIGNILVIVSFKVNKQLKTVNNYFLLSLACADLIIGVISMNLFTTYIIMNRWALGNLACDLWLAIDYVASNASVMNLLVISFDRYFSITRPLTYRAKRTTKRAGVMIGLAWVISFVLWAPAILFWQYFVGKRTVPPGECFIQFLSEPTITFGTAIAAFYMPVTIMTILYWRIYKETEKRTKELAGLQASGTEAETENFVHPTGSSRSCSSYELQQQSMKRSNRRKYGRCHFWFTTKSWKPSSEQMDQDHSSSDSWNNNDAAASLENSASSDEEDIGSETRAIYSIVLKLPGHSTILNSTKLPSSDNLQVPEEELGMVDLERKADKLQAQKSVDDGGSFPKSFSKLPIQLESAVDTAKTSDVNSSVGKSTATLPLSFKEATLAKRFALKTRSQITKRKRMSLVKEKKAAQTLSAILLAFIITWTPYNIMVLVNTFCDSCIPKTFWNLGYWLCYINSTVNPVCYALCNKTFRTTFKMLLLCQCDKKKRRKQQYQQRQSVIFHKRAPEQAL

[5] = test system: wild-type CHO cells; test: Calcium response in wild-type CHO cells; assay type: cell-based; settings: Supplemental Fig. 2
[6] = test system: human Avpr2 vasopressin receptor; test: Calcium mobilization assay, CHO-V2; assay type: cell-based; settings: Supplemental Fig. 1
[7] = test system: BALB/cByJ mice; test: Marble-burying assay, BALB/cByJ; assay type: in vivo, mouse; settings: for digging responses in marble-burying assay, oxytocin metabolites: acute IP, Supplemental Fig. 3B, C
[8] = target: T2, human Avpr1b vasopressin receptor (Homo sapiens, UniProt P47901); test: Calcium mobilization assay, CHO-V1b; assay type: cell-based
T2 sequence (P47901 1-424): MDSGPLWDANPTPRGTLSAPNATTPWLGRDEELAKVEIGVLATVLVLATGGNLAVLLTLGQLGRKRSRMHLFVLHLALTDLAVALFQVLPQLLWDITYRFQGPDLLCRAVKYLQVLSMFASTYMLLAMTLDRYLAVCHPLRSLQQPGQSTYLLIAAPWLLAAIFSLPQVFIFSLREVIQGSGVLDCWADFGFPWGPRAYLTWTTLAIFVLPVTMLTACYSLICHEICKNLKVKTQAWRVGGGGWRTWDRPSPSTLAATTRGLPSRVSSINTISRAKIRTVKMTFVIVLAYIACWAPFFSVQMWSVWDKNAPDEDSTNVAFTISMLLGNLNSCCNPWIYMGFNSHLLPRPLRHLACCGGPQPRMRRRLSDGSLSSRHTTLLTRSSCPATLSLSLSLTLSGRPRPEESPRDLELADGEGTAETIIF

[9] = target: T3, muscarinic acetylcholine receptor M2 (Homo sapiens, UniProt P08172); test: NIMH PDSP GPCR receptor binding screen, M2
T3 sequence (P08172 1-466): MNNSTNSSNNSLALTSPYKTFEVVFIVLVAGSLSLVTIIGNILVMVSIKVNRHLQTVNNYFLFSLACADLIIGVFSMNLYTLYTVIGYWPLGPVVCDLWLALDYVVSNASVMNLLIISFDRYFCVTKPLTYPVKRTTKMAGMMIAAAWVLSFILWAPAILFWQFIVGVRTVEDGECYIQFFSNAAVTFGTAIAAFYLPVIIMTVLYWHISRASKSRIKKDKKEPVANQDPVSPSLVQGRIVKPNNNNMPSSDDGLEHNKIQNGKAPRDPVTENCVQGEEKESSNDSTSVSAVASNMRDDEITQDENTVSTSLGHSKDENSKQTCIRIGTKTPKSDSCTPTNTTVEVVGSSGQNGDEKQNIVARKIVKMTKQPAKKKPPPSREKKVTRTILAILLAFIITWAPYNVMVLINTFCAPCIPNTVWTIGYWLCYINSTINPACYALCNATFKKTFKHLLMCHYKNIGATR

[10] = test system: other human receptors; test: NIMH PDSP GPCR receptor binding screen, other receptors; settings: complete set of GPCRs available through NIMH PDSP
[11] = target: T4, muscarinic acetylcholine receptor M4 (Homo sapiens, UniProt P08173); test: NIMH PDSP GPCR receptor binding screen, M4
T4 sequence (P08173 1-479): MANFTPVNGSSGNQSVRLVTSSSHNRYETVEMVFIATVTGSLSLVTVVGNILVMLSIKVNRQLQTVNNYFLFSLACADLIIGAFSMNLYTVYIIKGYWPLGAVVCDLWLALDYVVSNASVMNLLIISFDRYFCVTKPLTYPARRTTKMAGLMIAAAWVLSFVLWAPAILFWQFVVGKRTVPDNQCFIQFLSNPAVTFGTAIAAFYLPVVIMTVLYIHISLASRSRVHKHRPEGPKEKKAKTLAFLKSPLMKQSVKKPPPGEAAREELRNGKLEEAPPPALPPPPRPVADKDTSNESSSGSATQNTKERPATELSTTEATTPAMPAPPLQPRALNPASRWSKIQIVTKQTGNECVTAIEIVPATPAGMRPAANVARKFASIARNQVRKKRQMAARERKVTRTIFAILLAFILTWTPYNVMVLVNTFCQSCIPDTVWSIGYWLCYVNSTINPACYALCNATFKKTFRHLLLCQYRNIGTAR

[12] = target: T5, muscarinic acetylcholine receptor M5 (Homo sapiens, UniProt P08912); test: NIMH PDSP GPCR receptor binding screen, M5
T5 sequence (P08912 1-532): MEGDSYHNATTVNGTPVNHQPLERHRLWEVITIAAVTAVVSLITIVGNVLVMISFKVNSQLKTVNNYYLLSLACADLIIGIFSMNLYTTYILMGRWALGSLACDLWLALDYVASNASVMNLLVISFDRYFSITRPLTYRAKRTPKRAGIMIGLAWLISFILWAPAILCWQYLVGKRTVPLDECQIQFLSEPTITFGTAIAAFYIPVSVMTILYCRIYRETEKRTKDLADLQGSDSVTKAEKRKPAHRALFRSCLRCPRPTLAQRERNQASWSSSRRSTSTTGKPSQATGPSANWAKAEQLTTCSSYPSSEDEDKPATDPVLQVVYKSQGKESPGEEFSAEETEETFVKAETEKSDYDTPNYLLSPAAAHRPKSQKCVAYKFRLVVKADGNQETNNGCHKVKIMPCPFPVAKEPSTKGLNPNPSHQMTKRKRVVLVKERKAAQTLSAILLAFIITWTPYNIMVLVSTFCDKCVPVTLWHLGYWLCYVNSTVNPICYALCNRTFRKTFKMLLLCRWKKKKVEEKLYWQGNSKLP

[13] = target: T6, OXTR (β-arrestin recruitment) (Homo sapiens, UniProt P30559); test: PathHunter eXpress β-Arrestin GPCR Kit, enzyme fragment complementation assay; assay type: cell-based
T6 sequence (P30559 1-389): T1 sequence (P30559 1-389)

[14] = target: T7, human OXTR (Homo sapiens, UniProt P30559); test: IP3 accumulation assay; assay type: cell-based
T7 sequence (P30559 1-389): T1 sequence (P30559 1-389)

[15] = test system: human Avpr1a vasopressin receptor; test: Calcium mobilization assay, CHO-V1a; assay type: cell-based; settings: Supplemental Fig. 1
[16] = target: Avpr1a vasopressin receptor; settings: ref Frantz et al., 2010, cited from earlier work
[17] = test system: BALB/cByJ mice; test: Three-chamber social choice test after subchronic regimen; assay type: in vivo, mouse
[18] = target: T6, OXTR (β-arrestin recruitment); assay type: cell-based
[19] = test system: rodents; settings: ref Ring and colleagues 2006, 2010; cited from earlier work
[20] = test system: rats; settings: ref de Wied et al., 1987; cited from earlier work
[21] = test system: rats; settings: dependent on dose; ref Popik et al., 1996; cited from earlier work
[22] = test system: BALB/cByJ mice; test: Open field test for activity and exploration; assay type: in vivo, mouse

For `Cc1cc(C(=O)N2Cc3cnn(C)c3Nc3ccccc32)ccc1CNC(=O)N1CCC[C@H]1C(=S)N1CCCN(C)CC1` [TC-OT-39, (2S)-N-[[4-[(4,10-Dihydro-1-methylpyrazolo[3,4-b][1,5]benzodiazepin-5(1H)-yl)carbonyl]-2-methylphenyl]methyl]-2-[(hexahydro-4-methyl-1H-1,4-diazepin-1-yl)thioxomethyl]-1-pyrrolidinecarboxamide], the EC50 ([1]; read-out: EC50, OXTR IP3 accumulation) is given as 667 nM, the “agonist character, OXTR IP3 accumulation” value [1] is given as “partial agonist” and the “Efficacy (% OXT Response), FLIPR TETRA Ca2+ Release” value ([2]; Table 1, oxytocin response as 100%) is given as 102%. For the same molecule, the “agonist character at human OXTR” value ([2]; calcium mobilization / Gq signaling) was “moderately potent full agonist at the human OXTR; also recorded: efficacy comparable to that of oxytocin for Gq signaling”, the EC50 ([3]; read-out: EC50, OXTR gene reporter assay) was 33 nM and the “agonist character, OXTR gene reporter assay” value [3] was “full agonist”. The Ki [4] was greater than 1000 nM, the “response of wild-type CHO cells” value [5] was “did not induce any response” and the “activation of human Avpr2” value [6] was “did not activate the human Avpr1a or Avpr2 receptors”. For the same molecule, the “marble burying, BALB/cByJ, 50 mg/kg” value ([7]; TC-OT-39 50 mg/kg IP, 50 min before test, F(1,14)=6.18, p=0.0261) was “comparable decreases in marble burying”, the “sedative-like effects, 75 mg/kg” value ([7]; TC-OT-39 75 mg/kg IP, acute, not further tested) was “overt sedative-like effects” and the EC50 [8] was 4300 ± 70 nM. For the same molecule, the “efficacy at human Avpr1b” value ([8]; compared to vasopressin) was 74 ± 2%, the Ki [9] was greater than 1000 nM and the “binding to other human receptors” value [10] was “no significant binding to other human receptors”. The Ki [11] was greater than 1000 nM, the Ki [12] was greater than 1000 nM and the EC50 [13] was 480 nM. The “agonist character for β-arrestin recruitment” value ([13]; enzyme fragment complementation assay, CHO cells) was “reduced efficacy for β-arrestin recruitment; also recorded: only a partial agonist of β-arrestin recruitment”, the “Efficacy (% OXT Response), DiscoveRx Express β-Arrestin” value ([13]; oxytocin response as 100%, run as single points only) was 48% and the EC50 [14] was 890 ± 90 nM. The Emax ([14]; read-out: maximum efficacy, IP3 accumulation) was 67 ± 4%, the “activation of human Avpr1a” value ([15]; CHO-V1a) was “did not activate the human Avpr1a” and the “inverse agonism at Avpr1a” value [15] was “appears to be an inverse agonist at Avpr1a”. The Ki ([16]; read-out: KI at Avpr1a, antagonist) was 330 nM, the “character at Avpr1a” value [16] was “antagonist of the Avpr1a vasopressin receptor” and the “emergence of sociability at 14 days, TC-OT-39” value ([17]; 30 and 50 mg/kg IP, subchronic, 14 days after final injection) was “no evidence for the emergence of increased sociability at the 14-day time point”. For the same molecule, the EC50 [18] was 310 ± 260 nM and the “Efficacy (% OXT Response), DiscoveRx β-Arrestin” value ([18]; oxytocin response as 100%) was 51 ± 6%.

For `Cc1cc(C(=O)N2Cc3cnn(C)c3Nc3ccccc32)ccc1CNC(=O)N1CCN(Cc2cc(O)cc(O)c2)CC1` [WAY-267464], the “anxiolytic-like effects, rodent assays” value [19] is given as “comparable anxiolytic-like effects in rodent assays”.

In the case of Asn-Cyt-Pro-Leu-Gly-NH2 [OT(5-9)], the “potency on avoidance learning relative to oxytocin” value [20] is listed as “greater potency than oxytocin itself on specific aspects of avoidance learning in rats”, the “digging responses in marble-burying assay, oxytocin metabolites” value ([7]; 50 min before test) is listed as “neither OT(4-9) nor OT(5-9) altered digging responses in the marble-burying assay” and the “sociability, OT(5-9) 1 mg/kg” value ([17]; 1 mg/kg IP, subchronic, Supplemental Fig. 4D, E) is listed as “failed to reverse social deficits”. For the same molecule, the “sociability, OT(5-9) 2.0 mg/kg” value ([17]; 2.0 mg/kg IP, subchronic, Supplemental Fig. 5) was “failed to reveal prosocial efficacy”.

For pGlu-Asn-Cyt-Pro-Leu-Gly-NH2 [OT(4-9)], the “potency on avoidance learning relative to oxytocin” value [20] is listed as “greater potency than oxytocin itself on specific aspects of avoidance learning in rats”, the “digging responses in marble-burying assay, oxytocin metabolites” value ([7]; 50 min before test) is listed as “neither OT(4-9) nor OT(5-9) altered digging responses in the marble-burying assay” and the social recognition [21] is listed as “oxytocin-like effects on social recognition in rats, dependent on dose”. The “activity or exploration in open field, OT(4-9)” value ([22]; OT(4-9) 2.0 mg/kg IP immediately before 2-hr test, versus vehicle, n=9) was “no significant effects on activity or exploration in the open field”, the “anxiolytic effects, acute OT(4-9)” value ([22]; acute, marble-burying assay and open field tests) was “lacked anxiolytic effects in the marble-burying assay and open field tests” and the “entries, OT(4-9) 1.0 mg/kg” value ([17]; 1.0 mg/kg IP, subchronic, n=8) was “without changing entries during the test”. The “proximity to stranger mouse, OT(4-9) 1.0 mg/kg” value ([17]; 1.0 mg/kg IP, subchronic, n=8, main effect of side F(1,14)=6.84, p=0.0204) was “significant social preference for proximity to the stranger mouse”, the “time in side with stranger mouse, OT(4-9) 2.0 mg/kg, 24 hr and 12 days” value ([17]; 2.0 mg/kg IP, subchronic, 24-hr test F(1,21)=7.3, p=0.0133, 12-day test F(1,21)=4.85, p=0.039, n=8) was “significant preference for spending more time in the side with the stranger mouse at both time points” and the “proximity to stranger mouse, OT(4-9) 2.0 mg/kg, 12 days” value ([17]; 2.0 mg/kg IP, subchronic, 12 days, F(1,21)=7.02, p=0.015, n=8) was “significant preference for proximity to the stranger mouse 12 days following the final injection”. The “prosocial efficacy compared with oxytocin” value ([17]; OT(4-9) 2.0 mg/kg vs oxytocin 1.0 mg/kg, subchronic) was “prosocial efficacy similar to oxytocin”, the “dose dependence of sociability, OT(4-9)” value ([17]; subchronic IP) was “only the higher doses (1.0 and 2.0 mg/kg) leading to increased sociability” and the “entries during 3-chamber test (discussion)” value ([17]; subchronic IP) was “neither oxytocin nor OT(4-9) led to alterations in entries during the 3-chamber test”.
